Measurements from patent US20200361895A1, “NOVEL SULFONAMIDE CARBOXAMIDE COMPOUNDS” (Inflazome Limited, priority 2017, published 2020).
Counter-ions that a name gives are not always drawn.

Biological target: NLRP3 (Homo sapiens, UniProt Q96P20)
Test: THP-1 cells pyroptosis assay (LPS + nigericin, resazurin readout; THP IC50)
Assay type: cell-based
Set-up: Seed THP-1 cells (25,000 cells/well) containing 1.0 μg/ml LPS in 40 μl of RPMI medium; host or cells: THP-1 cells
Description: THP-1 cells (ATCC #TIB-202) were grown in RPMI containing L-glutamine (Gibco #11835) supplemented with 1 mM sodium pyruvate (Sigma #S8636) and penicillin (100 units/ml)/streptomycin (0.1 mg/ml) (Sigma #P4333) in 10% Fetal Bovine Serum (FBS) (Sigma #F0804). The cells were routinely passaged and grown to confluency (˜10^6 cells/ml). On the day of the experiment, THP-1 cells were harvested and resuspended into RPMI medium (without FBS). The cells were then counted and viability (>90%) checked by Trypan blue (Sigma #T8154). Appropriate dilutions were made to give a concentration of 625,000 cells/ml. To this diluted cell solution was added LPS (Sigma #L4524) to give a 1 μg/ml Final Assay Concentration (FAC). 40 μl of the final preparation was aliquoted into each well of a 96-well plate. The plate thus prepared was used for compound screening.
The following method step-by-step assay was followed for compound screening. • 1. Seed THP-1 cells (25,000 cells/well) containing 1.0 μg/ml LPS in 40 μl of RPMI medium (without FBS) in 96-well, black walled, clear bottom cell culture plates coated with poly-D-lysine (VWR #734-0317) • 2. Add 5 μcompound (8 points half-log dilution, with 10 μM top dose) or vehicle (DMSO 0.1% FAC) to the appropriate wells • 3. Incubate for 3 hrs at 37° C. and 5% CO2 • 4. Add 5 μnigericin (Sigma #N7143) (FAC 5 μM) to all wells • 5. Incubate for 1 hr at 37° C. and 5% CO2 • 6. At the end of the incubation period, spin plates at 300×g for 3 mins and remove supernatant • 7. Then add 50 μl of resazurin (Sigma #R7017) (FAC 100 μM resazurin in RPMI medium without FBS) and incubate plates for a further 1-2 hrs at 37° C. and 5% CO2 • 8. Plates were read in an Envision reader at Ex 560 nm and Em 590 nm • 9. IC50 data is fitted to a non-linear regression equation (log inhibitor vs response-variable slope 4-parameters)

Sequence of NLRP3 (Q96P20 whole entry): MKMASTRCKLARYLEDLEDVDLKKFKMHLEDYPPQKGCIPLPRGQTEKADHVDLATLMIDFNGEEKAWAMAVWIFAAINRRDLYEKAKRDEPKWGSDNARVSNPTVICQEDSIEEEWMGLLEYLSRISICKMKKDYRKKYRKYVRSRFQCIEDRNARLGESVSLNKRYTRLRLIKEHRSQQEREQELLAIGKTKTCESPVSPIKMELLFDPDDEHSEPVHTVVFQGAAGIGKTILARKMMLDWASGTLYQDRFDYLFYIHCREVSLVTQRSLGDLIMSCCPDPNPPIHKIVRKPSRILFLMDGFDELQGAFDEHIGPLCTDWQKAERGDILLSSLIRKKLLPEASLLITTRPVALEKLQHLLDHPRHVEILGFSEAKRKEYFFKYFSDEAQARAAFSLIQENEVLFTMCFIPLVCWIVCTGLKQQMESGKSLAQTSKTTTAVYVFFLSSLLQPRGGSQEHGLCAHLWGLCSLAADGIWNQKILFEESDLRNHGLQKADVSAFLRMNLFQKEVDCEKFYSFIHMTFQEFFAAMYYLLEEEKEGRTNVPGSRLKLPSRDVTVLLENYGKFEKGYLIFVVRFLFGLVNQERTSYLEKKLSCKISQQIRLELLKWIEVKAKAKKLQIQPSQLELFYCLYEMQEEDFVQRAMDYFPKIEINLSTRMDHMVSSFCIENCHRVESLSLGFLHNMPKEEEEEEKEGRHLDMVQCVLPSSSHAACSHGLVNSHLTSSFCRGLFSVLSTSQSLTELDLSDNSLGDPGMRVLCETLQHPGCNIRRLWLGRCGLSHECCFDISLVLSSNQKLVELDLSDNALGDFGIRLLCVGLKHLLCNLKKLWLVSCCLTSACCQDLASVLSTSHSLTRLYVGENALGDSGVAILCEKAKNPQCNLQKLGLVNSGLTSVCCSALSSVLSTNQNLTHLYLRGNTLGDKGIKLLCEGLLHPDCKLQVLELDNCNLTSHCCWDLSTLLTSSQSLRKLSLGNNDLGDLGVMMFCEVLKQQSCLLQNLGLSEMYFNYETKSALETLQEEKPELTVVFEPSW

Row | IC50 [µM] | Structure (SMILES)
1 | ≤ 5 | CC(C)c1cc(F)cc(-c2ccnn2C)c1NC(=O)NS(=O)(=O)c1ccn(C(C)C)n1 [Example 5, N-((4-Fluoro-2-iso-propyl-6-(1-methyl-1H-pyrazol-5-yl)phenyl)carbamoyl)-1-iso-propyl-1H-pyrazole-3-sulfonamide]
2 | ≤ 5 | CC(C)c1cc(F)cc(-c2cncs2)c1NC(=O)NS(=O)(=O)c1ccn(C(C)C)n1 [Example 6, N-((4-Fluoro-2-iso-propyl-6-(thiazol-5-yl)phenyl)carbamoyl)-1-iso-propyl-1H-pyrazole-3-sulfonamide]
3 | ≤ 5 | CC(C)c1cc(F)cc(-c2cnoc2)c1NC(=O)NS(=O)(=O)c1ccn(C(C)C)n1 [Example 7, N-((4-Fluoro-2-iso-propyl-6-(isoxazol-4-yl)phenyl)carbamoyl)-1-iso-propyl-1H-pyrazole-3-sulfonamide]
4 | ≤ 5 | CC(C)c1cc(F)cc(-c2cccc(C#N)c2)c1NC(=O)NS(=O)(=O)c1ccn(C(C)C)n1 [Example 8, N-((3′-Cyano-5-fluoro-3-iso-propyl-[1,1′-biphenyl]-2-yl)carbamoyl)-1-iso-propyl-1H-pyrazole-3-sulfonamide, sodium salt]
5 | ≤ 0.5 | Cc1cc(-c2cc(F)cc(C(C)C)c2NC(=O)NS(=O)(=O)c2ccn(C(C)C)n2)ccn1 [Example 13, N-((4-Fluoro-2-iso-propyl-6-(2-methylpyridin-4-yl)phenyl)carbamoyl)-1-iso-propyl-1H-pyrazole-3-sulfonamide, partial ammonium salt]
6 | ≤ 5 | Cc1ncccc1-c1cc(F)cc(C(C)C)c1NC(=O)NS(=O)(=O)c1ccn(C(C)C)n1 [Example 14, N-((4-Fluoro-2-iso-propyl-6-(2-methylpyridin-3-yl)phenyl)carbamoyl)-1-iso-propyl-1H-pyrazole-3-sulfonamide, partial ammonium salt]
7 | ≤ 5 | Cc1ccc(-c2cc(F)cc(C(C)C)c2NC(=O)NS(=O)(=O)c2ccn(C(C)C)n2)cn1 [Example 15, N-((4-Fluoro-2-iso-propyl-6-(6-methylpyridin-3-yl)phenyl)carbamoyl)-1-iso-propyl-1H-pyrazole-3-sulfonamide, partial ammonium salt]
8 | ≤ 1 | COc1ccc(-c2cc(F)cc(C(C)C)c2NC(=O)NS(=O)(=O)c2ccn(C(C)C)n2)cn1 [Example 19, N-((4-Fluoro-2-iso-propyl-6-(6-methoxypyridin-3-yl)phenyl)carbamoyl)-1-iso-propyl-1H-pyrazole-3-sulfonamide]
9 | ≤ 5 | Cc1ccncc1-c1cc(F)cc(C(C)C)c1NC(=O)NS(=O)(=O)c1ccn(C(C)C)n1 [Example 20, N-((4-Fluoro-2-iso-propyl-6-(4-methylpyridin-3-yl)phenyl)carbamoyl)-1-iso-propyl-1H-pyrazole-3-sulfonamide, partial ammonium salt]
10 | ≤ 5 | CC(C)c1cc(F)cc(-c2cncc(F)c2)c1NC(=O)NS(=O)(=O)c1ccn(C(C)C)n1 [Example 21, N-((4-Fluoro-2-(5-fluoropyridin-3-yl)-6-isopropylphenyl)carbamoyl)-1-iso-propyl-1H-pyrazole-3-sulfonamide, partial ammonium salt]
11 | ≤ 5 | CC(C)c1cc(F)cc(-c2cnn(C)c2)c1NC(=O)NS(=O)(=O)c1cn(C(C)C)cn1 [Example 31, N-((4-Fluoro-2-iso-propyl-6-(1-methyl-1H-pyrazol-4-yl)phenyl)carbamoyl)-1-iso-propyl-1H-imidazole-4-sulfonamide]
12 | ≤ 5 | CC(C)c1cc(F)cc(-c2cncnc2)c1NC(=O)NS(=O)(=O)c1cc(CN(C)C)n(C(C)C)n1 [Example 43, 5-((Dimethylamino)methyl)-N-((4-fluoro-2-isopropyl-6-(pyrimidin-5-yl)phenyl)carbamoyl)-1-isopropyl-1H-pyrazole-3-sulfonamide]
13 | ≤ 5 | CC(C)c1cc(F)cc(-c2ccnc(N(C)C)c2)c1NC(=O)NS(=O)(=O)c1ccn(C(C)C)n1 [Example 50, N-((2-(2-(Dimethylamino)pyridin-4-yl)-4-fluoro-6-isopropylphenyl)carbamoyl)-1-isopropyl-1H-pyrazole-3-sulfonamide]
14 | ≤ 5 | CC(C)c1cc(F)cc(-c2ccnc(C(N)=O)c2)c1NC(=O)NS(=O)(=O)c1cc(CN(C)C)n(C)n1 [Example 67, 4-(2-(3-((5-((Dimethylamino)methyl)-1-methyl-1H-pyrazol-3-yl)sulfonyl)ureido)-5-fluoro-3-isopropylphenyl)picolinamide]

Further lines, the compound ahead of its results:

Row | Structure (SMILES) | IC50 [µM]
15 | CC(C)c1cc(F)cc(-c2cnn(C)c2)c1NC(=O)NS(=O)(=O)c1ccn(C(C)C)n1 [Example 2, N-((4-Fluoro-2-iso-propyl-6-(1-methyl-1H-pyrazol-4-yl)phenyl)carbamoyl)-1-iso-propyl-1H-pyrazole-3-sulfonamide] | ≤ 5
16 | CC(C)c1cc(F)cc(-c2cncn2C)c1NC(=O)NS(=O)(=O)c1ccn(C(C)C)n1 [Example 3, N-((4-Fluoro-2-iso-propyl-6-(1-methyl-1H-imidazol-5-yl)phenyl)carbamoyl)-1-iso-propyl-1H-pyrazole-3-sulfonamide] | ≤ 5
17 | CC(C)c1cc(F)cc(-c2ccccc2)c1NC(=O)NS(=O)(=O)c1ccn(C(C)C)n1 [Example 4, N-((5-Fluoro-3-iso-propyl-[1,1′-biphenyl]-2-yl)carbamoyl)-1-iso-propyl-1H-pyrazole-3-sulfonamide] | ≤ 5
18 | CC(C)c1cc(F)cc(-c2ccc(C#N)cc2)c1NC(=O)NS(=O)(=O)c1ccn(C(C)C)n1 [Example 9, N-((4′-Cyano-5-fluoro-3-iso-propyl-[1,1′-biphenyl]-2-yl)carbamoyl)-1-iso-propyl-1H-pyrazole-3-sulfonamide, sodium salt] | ≤ 5
19 | Cc1cc(-c2cc(F)cc(C(C)C)c2NC(=O)NS(=O)(=O)c2ccn(C(C)C)n2)n(C)n1 [Example 11, N-((2-(1,3-Dimethyl-1H-pyrazol-5-yl)-4-fluoro-6-iso-propylphenyl)carbamoyl)-1-iso-propyl-1H-pyrazole-3-sulfonamide, partial ammonium salt] | ≤ 0.5
20 | CC(C)c1cc(F)cc(-c2cncc(Cl)c2)c1NC(=O)NS(=O)(=O)c1ccn(C(C)C)n1 [Example 16, N-((2-(5-Chloropyridin-3-yl)-4-fluoro-6-iso-propylphenyl)carbamoyl)-1-iso-propyl-1H-pyrazole-3-sulfonamide, partial ammonium salt] | ≤ 5
21 | COc1cncc(-c2cc(F)cc(C(C)C)c2NC(=O)NS(=O)(=O)c2ccn(C(C)C)n2)c1 [Example 17, N-((4-Fluoro-2-iso-propyl-6-(5-methoxypyridin-3-yl)phenyl)carbamoyl)-1-iso-propyl-1H-pyrazole-3-sulfonamide, partial ammonium salt] | ≤ 5
22 | CC(C)c1cc(F)cc(-c2cncnc2)c1NC(=O)NS(=O)(=O)c1ccn(C(C)C)n1 [Example 18, N-((4-Fluoro-2-iso-propyl-6-(pyrimidin-5-yl)phenyl)carbamoyl)-1-iso-propyl-1H-pyrazole-3-sulfonamide] | ≤ 1
23 | Cc1cnccc1-c1cc(F)cc(C(C)C)c1NC(=O)NS(=O)(=O)c1ccn(C(C)C)n1 [Example 22, N-((4-Fluoro-2-iso-propyl-6-(3-methylpyridin-4-yl)phenyl)carbamoyl)-1-iso-propyl-1H-pyrazole-3-sulfonamide] | ≤ 1
24 | COc1cc(-c2cc(F)cc(C(C)C)c2NC(=O)NS(=O)(=O)c2ccn(C(C)C)n2)cc(C)n1 [Example 26, N-((4-Fluoro-2-iso-propyl-6-(2-methoxy-6-methylpyridin-4-yl)phenyl)carbamoyl)-1-iso-propyl-1H-pyrazole-3-sulfonamide] | ≤ 5
25 | CCc1cc(-c2cc(F)cc(C(C)C)c2NC(=O)NS(=O)(=O)c2ccn(C(C)C)n2)ccn1 [Example 29, N-((2-(2-Ethylpyridin-4-yl)-4-fluoro-6-iso-propylphenyl)carbamoyl)-1-iso-propyl-1H-pyrazole-3-sulfonamide] | ≤ 5
26 | CC(C)c1cc(F)cc(-c2cncnc2)c1NC(=O)NS(=O)(=O)c1cc(CN(C)C)n(C)n1 [Example 42, 5-((Dimethylamino)methyl)-N-((4-fluoro-2-isopropyl-6-(pyrimidin-5-yl)phenyl)carbamoyl)-1-methyl-1H-pyrazole-3-sulfonamide] | ≤ 5
27 | CC(C)c1cc(F)cc(-c2ccnc(C(F)(F)F)c2)c1NC(=O)NS(=O)(=O)c1ccn(C(C)C)n1 [Example 47, N-((4-Fluoro-2-isopropyl-6-(2-(trifluoromethyl)pyridin-4-yl)phenyl)carbamoyl)-1-isopropyl-1H-pyrazole-3-sulfonamide] | ≤ 1
